Test results: US20240285670A1, “THERAPEUTIC TREATMENT OF TUMORS BY BLOCKING THE HEME SYNTHESIS-EXPORT AXIS” (Università degli Studi di Torino, priority 2021, published 2024)

Assays:
Caco2 cells = assay: Intracellular 5-ALA levels and 13C-isotope labelling (LC-MS) in Caco2 cells; type: cell-based, human
Experimental: (A) Heme content in Caco2 cells treated with 5 mM 5-ALA (black bars and white bars) or with 5 mM 5-ALA+0.5 mM SA (light grey outlined bars) for the indicated time points. […] Values are expressed as relative fluorescence intensity. Data represent mean±SEM, n=2. For statistical analyses, a two-way analysis of variance was used, followed by the Bonferroni correction for multiple group comparisons; **=p<0.01, ***=p<0.001. 5-ALA, 5-aminolevulinic acid; SA, succinylacetone. (B) Intracellular 5-ALA levels. […] Values are expressed as peak area/μg proteins. Data represent mean±SEM of n=4 wells pooled from two independent experiments. For statistical analyses, an unpaired Student's t-test was used; **=p<0.01. 5-ALA, 5-aminolevulinic acid. (C, D) Accumulation of ^13C2-5-ALA in cells incubated with U-^13C-glucose (C) or of ^13C3-5-ALA in cells incubated with U-^13C-glutamine (D) for the indicated time. […] Values are expressed as peak area/μg proteins. Data represent mean±SEM of n=4 wells pooled from two independent experiments. For statistical analyses, a two-way analysis of variance was used, followed by the Bonferroni correction for multiple group comparisons; ***p<0.001. […] Transcript abundance, normalized to beta-actin mRNA expression, is expressed as a fold increase over a calibrator sample. […] Band intensities were measured by densitometry and normalized to vinculin expression. […]

BTECs = BTECs counting (cell proliferation); type: cell-based, human; settings: FLVCR1a-silenced vs scramble shRNA BTECs, 24, 48 and 72 hours
Source text: (A) BTECs counting, as a readout of cell proliferation, at the indicated time points. […] Data represent mean±SEM, n=4. For statistical analyses, a two-way analysis of variance was used, followed by the Bonferroni correction for multiple group comparisons; ***p<0.001. (B) Quantification of BTECs migration rate in wound-healing assay. […] Data represent mean±SEM, n=32. For statistical analyses, a nonparametric unpaired Mann-Whitney test was used; ***p<0.001. (C) In vitro tubulogenesis assay on matrigel. […] The number of nodes counted within the neo-formed vascular networks is shown. Data represent mean±SEM; n=10. For statistical analyses, a nonparametric unpaired Mann-Whitney test was used; **p<0.01.
For cell counting, 1*10^4 BTECs were seeded in 12-well plates and counted at 24, 48 and 72 hours after plating, as a readout of cell proliferation. Three independent experiments were performed.

FLVCR1a shRNA: shRNA specifically down-regulating FLVCR1a without targeting FLVCR1b; pLKO.1 lentiviral clone TRCN0000059599, antisense SEQ ID No.: 2 (antisense TTGCTAATGATGCTGTACTGG; sense CCAGTACAGCATCATTAGCAA)
Intracellular 5-ALA levels (Caco2 cells; FLVCR1a-silenced vs scramble shRNA Caco2 cells): lower amount of 5-ALA
incorporation of labelled carbons in 5-ALA (Caco2 cells; U-13C-glucose or U-13C-glutamine, time course, FLVCR1a-silenced vs scramble): reduced incorporation of labelled carbons in 5-ALA
cell proliferation (cell counting) (BTECs): reduced proliferation
